Source: the NIST ThermoML archive (doi:10.1021/je200637v)
± gives the expanded uncertainty stated by the source.

Experiment: activity coefficient (dimensionless); of the first substance listed, at infinite dilution; xn = mol fraction of the nth substance listed
Details: Liquid, Chromatography, x1 = 0

Compound | activity coefficient (322.85 K) | activity coefficient (332.65 K) | activity coefficient (343.15 K)
CCC(C)CC [3-methylpentane] + CCCCCCCC[N+](CCCCCCCC)(CCCCCCCC)CCCCCCCC.O=S(=O)([N-]S(=O)(=O)C(F)(F)F)C(F)(F)F | 1.22 ± 0.04 | 1.22 ± 0.04 | 1.21 ± 0.04
CCC(C)CC [3-methylpentane] + CCCC[N+](C)(CCCC)CCCC.O=S(=O)([N-]S(=O)(=O)C(F)(F)F)C(F)(F)F | 6.1 ± 0.28 | 6.17 ± 0.28 | 5.86 ± 0.27
CC#N [acetonitrile] + CCCCCCCCCC[N+](C)(C)C.O=S(=O)([N-]S(=O)(=O)C(F)(F)F)C(F)(F)F | 0.44 ± 0.03 | 0.44 ± 0.03 | 0.42 ± 0.03
CC#N [acetonitrile] + CCCCCCCC[N+](C)(C)C.O=S(=O)([N-]S(=O)(=O)C(F)(F)F)C(F)(F)F | 0.48 ± 0.03 | 0.46 ± 0.03 | 0.44 ± 0.03
CC#N [acetonitrile] + CCCCCCCC[N+](CCCCCCCC)(CCCCCCCC)CCCCCCCC.O=S(=O)([N-]S(=O)(=O)C(F)(F)F)C(F)(F)F | 0.5 ± 0.03 | 0.49 ± 0.03 | 0.49 ± 0.03
CC#N [acetonitrile] + CCCC[N+](C)(CCCC)CCCC.O=S(=O)([N-]S(=O)(=O)C(F)(F)F)C(F)(F)F | 0.49 ± 0.03 | 0.5 ± 0.03 | 0.48 ± 0.03
c1ccccc1 [benzene] + CCCCCCCCCC[N+](C)(C)C.O=S(=O)([N-]S(=O)(=O)C(F)(F)F)C(F)(F)F | 0.71 ± 0.03 | 0.73 ± 0.03 | 0.72 ± 0.03
c1ccccc1 [benzene] + CCCCCCCC[N+](C)(C)C.O=S(=O)([N-]S(=O)(=O)C(F)(F)F)C(F)(F)F | 0.73 ± 0.03 | 0.74 ± 0.03 | 0.73 ± 0.03
c1ccccc1 [benzene] + CCCCCCCC[N+](CCCCCCCC)(CCCCCCCC)CCCCCCCC.O=S(=O)([N-]S(=O)(=O)C(F)(F)F)C(F)(F)F | 0.4 ± 0.03 | 0.41 ± 0.03 | 0.41 ± 0.03
c1ccccc1 [benzene] + CCCC[N+](C)(CCCC)CCCC.O=S(=O)([N-]S(=O)(=O)C(F)(F)F)C(F)(F)F | 0.9 ± 0.03 | 0.93 ± 0.03 | 0.92 ± 0.03
CCCCO [butan-1-ol] + CCCCCCCCCC[N+](C)(C)C.O=S(=O)([N-]S(=O)(=O)C(F)(F)F)C(F)(F)F | 1.7 ± 0.07 | 1.55 ± 0.06 | 1.38 ± 0.05
CCCCO [butan-1-ol] + CCCCCCCC[N+](C)(C)C.O=S(=O)([N-]S(=O)(=O)C(F)(F)F)C(F)(F)F | 2.01 ± 0.09 | 1.8 ± 0.08 | 1.59 ± 0.06
CCCCO [butan-1-ol] + CCCCCCCC[N+](CCCCCCCC)(CCCCCCCC)CCCCCCCC.O=S(=O)([N-]S(=O)(=O)C(F)(F)F)C(F)(F)F | 3.08 ± 0.14 | 1.12 ± 0.03 | 1.04 ± 0.03
CCCCO [butan-1-ol] + CCCC[N+](C)(CCCC)CCCC.O=S(=O)([N-]S(=O)(=O)C(F)(F)F)C(F)(F)F | 2.1 ± 0.1 | 1.89 ± 0.08 | 1.73 ± 0.07
CCCC=O [butanal] + CCCCCCCCCC[N+](C)(C)C.O=S(=O)([N-]S(=O)(=O)C(F)(F)F)C(F)(F)F | 0.47 ± 0.03 | 0.53 ± 0.03 | 0.51 ± 0.03
CCCC=O [butanal] + CCCCCCCC[N+](CCCCCCCC)(CCCCCCCC)CCCCCCCC.O=S(=O)([N-]S(=O)(=O)C(F)(F)F)C(F)(F)F |  |  | 0.31 ± 0.04
CCC(C)=O [butanone] + CCCCCCCCCC[N+](C)(C)C.O=S(=O)([N-]S(=O)(=O)C(F)(F)F)C(F)(F)F | 0.33 ± 0.04 | 0.32 ± 0.04 | 0.29 ± 0.04
CCC(C)=O [butanone] + CCCCCCCC[N+](C)(C)C.O=S(=O)([N-]S(=O)(=O)C(F)(F)F)C(F)(F)F | 0.41 ± 0.03 | 0.38 ± 0.03 | 0.34 ± 0.04
CCC(C)=O [butanone] + CCCCCCCC[N+](CCCCCCCC)(CCCCCCCC)CCCCCCCC.O=S(=O)([N-]S(=O)(=O)C(F)(F)F)C(F)(F)F | 0.29 ± 0.04 | 0.28 ± 0.04 | 0.26 ± 0.04
CCC(C)=O [butanone] + CCCC[N+](C)(CCCC)CCCC.O=S(=O)([N-]S(=O)(=O)C(F)(F)F)C(F)(F)F | 0.4 ± 0.03 | 0.38 ± 0.03 | 0.35 ± 0.04
C1CCCCCC1 [cycloheptane] + CCCCCCCCCC[N+](C)(C)C.O=S(=O)([N-]S(=O)(=O)C(F)(F)F)C(F)(F)F | 7.7 ± 0.35 | 10.8 ± 0.49 | 14.6 ± 0.67
C1CCCCCC1 [cycloheptane] + CCCCCCCC[N+](C)(C)C.O=S(=O)([N-]S(=O)(=O)C(F)(F)F)C(F)(F)F | 10.8 ± 0.5 | 14.7 ± 0.68 | 19.4 ± 0.9
C1CCCCCC1 [cycloheptane] + CCCCCCCC[N+](CCCCCCCC)(CCCCCCCC)CCCCCCCC.O=S(=O)([N-]S(=O)(=O)C(F)(F)F)C(F)(F)F | 2.21 ± 0.1 | 3.16 ± 0.14 | 4.37 ± 0.2
